Data from US20230393140A1, “BINDING ASSAYS INVOLVING A PLURALITY OF SYNTHETIC COMPOUNDS, TARGETS, AND COUNTER TARGETS” (SRI International, priority 2020, published 2023).
Where two headings read alike, the source gives them in different places.

Target: T1, cRaf/K-Ras (G12V) PPI (Homo sapiens, UniProt P01116, G12V)
T1 construct: b-Kras G12V (GppNHp) (aa 2-169); biotin (b-
Assay: K-Ras-cRaf HTRF-based PPI profiling;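 as to blank corrected HTRF: background is the signal of wells with all components except cRaf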
Assay type: biochemical
Details: for blank corrected HTRF: raw data; for % Binding: relative to DMSO controls
Method: In some experimental embodiments, a buffer was added to the assay wells which included […] HEPES pH 7.4, 150 mM NaCl, 5 mM MgCl2, 1 mM DTT, 0.005% NP40, and 1% DMSO. 5 uL of 3×K-Ras protein was then added to the assay wells, followed by the synthetic compounds which were added using acoustic technology (ECHO, Labcyte) followed by thirty minutes incubation at room temperature. Afterwards, 5 uL of 3×cRaf protein was added to the assay wells and 5 uL of detection mix was then added to the assay wells after 30 minutes. The detection mix included Mab anti-GST-Tb cryptate (Cisbio 61GSTTLB) and streptavidin-XL665 (Ex/Em=(337/665; 620) in PHERAstar (BMG Labtech)). HTRF signal was measured […] later.
The data includes raw data (signal-background without cRaf protein but with all other component), % binding (relative to DMSO controls), and curve fits. Curve fits were performed when the activities at the highest concentration of the synthetic compounds were less than 65%. Tables 18A-18B below includes the raw data (e.g., blank corrected HTRF) and Tables 19A-19B includes the % binding.

SMILES: Cn1cnc(Cn2ccc3ccc(CNCc4[nH]c5ccccc5c4[C@H]4NC(=O)c5ccc(O)cc54)cc32)c1 [BI-2852, reference compound]
- IC50 (1% DMSO in reaction, compounds without fluorescein, 30 nM K-Ras G12V, 10 nM GST-cRaf, 30 min pre-incubation, read-out: K-Ras G12V Compound IC50): 1.6 µM
- IC50 (10-concentration IC50 mode, 3-fold serial dilution, K-Ras G12V 30 nM, GST-cRaf 10 nM, read-out: IC50): 1.6 µM
- HillSlope (curve fit of % binding, K-Ras G12V 30 nM, GST-cRaf 10 nM): −0.5508
- blank corrected HTRF (conc. 1.67E−05): 2409
- blank corrected HTRF (conc. 1.85E−06): 6562
- blank corrected HTRF (conc. 2.06E−07): 10050
- blank corrected HTRF (conc. 2.29E−08): 12784
- blank corrected HTRF (conc. 2.54E−09): 13013
- blank corrected HTRF (conc. 5.00E−05): 2344
- blank corrected HTRF (conc. 5.56E−06): 4849
- blank corrected HTRF (conc. 6.17E−07): 8628
- blank corrected HTRF (conc. 6.86E−08): 11886
- blank corrected HTRF (conc. 7.62E−09): 13422
- % Binding (conc. 1.67E−05): 17.36%
- % Binding (conc. 1.85E−06): 47.29%
- % Binding (conc. 2.06E−07): 72.42%
- % Binding (conc. 2.29E−08): 92.13%
- % Binding (conc. 2.54E−09): 93.78%
- % Binding (conc. 5.00E−05): 16.9%
- % Binding (conc. 5.56E−06): 34.94%
- % Binding (conc. 6.17E−07): 62.18%
- % Binding (conc. 6.86E−08): 85.66%
- % Binding (conc. 7.62E−09): 96.73%
